In ChEMBL document CHEMBL5131397, “Discovery and Optimization of Pyrazole Amides as Inhibitors of ELOVL1” (J Med Chem, 2021):

Tests used:
[1] = target: T1, Very long chain fatty acid elongase 1 (Homo sapiens, UniProt Q9BW60); assay: Inhibition of ELOVL1 in human HEK2936E cells assessed as reduction of C26:0 LPC synthesis incubated for 48 hrs by cellular assay; assay type: cell-based
T1 sequence (Q9BW60 whole entry): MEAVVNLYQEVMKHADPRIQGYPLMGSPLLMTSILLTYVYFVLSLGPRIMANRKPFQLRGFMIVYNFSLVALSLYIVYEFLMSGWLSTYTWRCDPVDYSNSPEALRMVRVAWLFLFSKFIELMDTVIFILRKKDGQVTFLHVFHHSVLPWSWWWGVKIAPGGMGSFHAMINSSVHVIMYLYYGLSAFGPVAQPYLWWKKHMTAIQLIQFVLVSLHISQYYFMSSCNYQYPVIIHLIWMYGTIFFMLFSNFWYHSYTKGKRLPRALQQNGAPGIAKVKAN

[2] = target: T1, Very long chain fatty acid elongase 1; assay: Inhibition of ELOVL1 (unknown origin) using C22-acyl-CoA as substrate by radiometric enzyme assay
[3] = Intrinsic clearance in rat hepatocytes assessed per million cells; assay type: ADME, cell-based, Hepatocyte; details: read-out: CLH
[4] = Intrinsic clearance in human hepatocytes assessed per million cells; assay type: ADME, cell-based, Hepatocyte; details: read-out: CLH
[5] = target: T2, Very long chain fatty acid elongase 6 (Homo sapiens, UniProt Q9H5J4); assay: Inhibition of ELOVL6 (unknown origin) using C16-acyl-CoA as substrate by radiometric enzyme assay
T2 sequence (Q9H5J4 whole entry): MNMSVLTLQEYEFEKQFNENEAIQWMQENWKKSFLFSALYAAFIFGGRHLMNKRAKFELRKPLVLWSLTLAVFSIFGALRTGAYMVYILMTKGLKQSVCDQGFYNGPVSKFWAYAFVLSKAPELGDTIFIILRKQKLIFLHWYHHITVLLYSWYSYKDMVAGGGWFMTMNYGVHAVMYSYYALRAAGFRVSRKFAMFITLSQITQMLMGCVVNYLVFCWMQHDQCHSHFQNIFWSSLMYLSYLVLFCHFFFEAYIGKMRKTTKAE

[6] = target: T3, Very long chain fatty acid elongase 7 (Homo sapiens, UniProt A1L3X0); assay: Inhibition of ELOVL7 (unknown origin) using C18-acyl-CoA as substrate by radiometric enzyme assay
T3 sequence (A1L3X0 whole entry): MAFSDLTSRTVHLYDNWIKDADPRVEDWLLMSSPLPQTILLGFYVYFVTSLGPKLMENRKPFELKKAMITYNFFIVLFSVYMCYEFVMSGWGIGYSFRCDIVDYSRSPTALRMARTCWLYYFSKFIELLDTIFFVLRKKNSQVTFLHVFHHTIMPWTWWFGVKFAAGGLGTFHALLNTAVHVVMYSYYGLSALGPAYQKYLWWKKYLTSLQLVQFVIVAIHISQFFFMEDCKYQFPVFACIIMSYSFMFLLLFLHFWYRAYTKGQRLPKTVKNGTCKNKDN

[7] = Reduction in C26:0 LPC level in ABCD1 (-/y) knock out mouse brain at 0.4 to 2 mg/kg, ip administered daily measured after 4.5 months by LC-MS/MS analysis; assay type: functional; parameters: scale not given: the % may be the effect or the level left; details: dose 0.4-2 mg/kg, 3285 h

SMILES | IC50 [1] | IC50 [2] | hepatocyte CLint [3] | hepatocyte CLint [4] | IC50 [5] | IC50 [6] | Activity [7]
O=C(Cc1ccccc1F)Nc1nc(-c2ccccc2)cs1 | 280 nM | 3200 nM | 281 µL/min/1e6 cells | 102 µL/min/1e6 cells | – | – | –
O=C(Cc1ccccc1)Nc1nc(-c2ccccc2)cs1 | 500 nM | 4000 nM | 398 µL/min/1e6 cells | 127 µL/min/1e6 cells | – | – | –
O=C(Cc1ccccc1F)Nc1ncc(-c2ccccc2)o1 | – | > 50000 nM | – | – | – | – | –
Cc1ccccc1C1(C(=O)Nc2ccn(-c3cncc(F)c3)n2)CC1 | 400 nM | 7500 nM | 400 µL/min/1e6 cells | 40 µL/min/1e6 cells | – | – | –
O=C(Nc1ccn(-c2ccncn2)n1)C1(c2ccccc2F)CC1 | 30 nM | 900 nM | 59 µL/min/1e6 cells | 14 µL/min/1e6 cells | – | – | –
O=C(Cc1ccccc1F)Nc1cnn(-c2ccccc2)n1 | 900 nM | > 8000 nM | 518 µL/min/1e6 cells | 101 µL/min/1e6 cells | – | – | –
N#Cc1cccc(C2(C(=O)Nc3ccn(-c4cncc(F)c4)n3)CC2)c1 | 310 nM | 2300 nM | 60 µL/min/1e6 cells | 4 µL/min/1e6 cells | – | – | –
O=C(Cc1ccccc1F)Nc1ccnc(-c2ccccc2)n1 | – | > 50000 nM | – | – | – | – | –
O=C(Nc1nc(-c2ccccc2)cs1)C1CCCO1 (stereo not drawn) | – | 30000 nM | – | – | > 100000 nM | > 100000 nM | –
O=C(Nc1ccn(-c2cncc(F)c2)n1)C1(c2cc(F)ccc2F)CC1 | 170 nM | 550 nM | 25 µL/min/1e6 cells | 6 µL/min/1e6 cells | – | – | –
COc1ccc(C2(C(=O)Nc3ccn(-c4cncc(F)c4)n3)CC2)cc1 | 640 nM | 3700 nM | 103 µL/min/1e6 cells | 11 µL/min/1e6 cells | – | – | –
O=C(Nc1nc(-c2ccncc2)cs1)C1(c2ccccc2)CC1 | – | 1800 nM | – | – | > 100000 nM | > 100000 nM | –
Cc1cc(OCC(=O)O)cc(C)c1Cc1ccc(O)c(C(C)C)c1 [SOBETIROME] | – | – | – | – | – | – | 21%
O=C(Nc1ccn(-c2cncc(F)c2)n1)C1(c2cccc(F)c2)CC1 | 190 nM | 1600 nM | 97 µL/min/1e6 cells | 8 µL/min/1e6 cells | – | – | –
O=C(Nc1ccn(-c2ccnc(C(F)(F)F)c2)n1)C1(c2ccccc2F)CC1 | > 5000 nM | > 50000 nM | 51 µL/min/1e6 cells | 8 µL/min/1e6 cells | – | – | –
O=C(Nc1ccn(-c2cncc(F)c2)n1)C1(c2cccc(F)c2F)CC1 | 140 nM | 1300 nM | 54 µL/min/1e6 cells | 6 µL/min/1e6 cells | – | – | –
O=C(Nc1ccn(-c2cncc(F)c2)n1)C1(c2ccccc2Cl)CC1 | 110 nM | 4500 nM | 61 µL/min/1e6 cells | 8 µL/min/1e6 cells | – | – | –
COc1ccccc1C1(C(=O)Nc2ccn(-c3cncc(F)c3)n2)CC1 | > 5000 nM | > 50000 nM | – | – | – | – | –
COc1cccc(C2(C(=O)Nc3ccn(-c4cncc(F)c4)n3)CC2)c1 | 170 nM | 1500 nM | 355 µL/min/1e6 cells | 19 µL/min/1e6 cells | – | – | –
COc1cc(-n2ccc(NC(=O)C3(c4ccccc4F)CC3)n2)ccn1 | 50 nM | 1200 nM | 130 µL/min/1e6 cells | 11 µL/min/1e6 cells | – | – | –
O=C(Cc1ccccc1F)Nc1ncn(-c2ccccc2)n1 | > 5000 nM | > 50000 nM | – | – | – | – | –
O=C(Cc1ccccc1F)Nc1cccc(-c2ccccc2)n1 | > 5000 nM | > 50000 nM | – | – | – | – | –
N#Cc1ccccc1C1(C(=O)Nc2ccn(-c3cncc(F)c3)n2)CC1 | 2500 nM | 23000 nM | 13 µL/min/1e6 cells | 5 µL/min/1e6 cells | – | – | –
N#Cc1ccc(C2(C(=O)Nc3ccn(-c4cncc(F)c4)n3)CC2)cc1 | 110 nM | 2200 nM | 8 µL/min/1e6 cells | 5 µL/min/1e6 cells | – | – | –
O=C(Nc1ccn(-c2cncc(F)c2)n1)C1(c2c(F)cccc2F)CC1 | 17 nM | 1200 nM | 13 µL/min/1e6 cells | 4 µL/min/1e6 cells | – | – | –
O=C(Cc1ccccc1F)Nc1nc(-c2ccnc(F)c2)cs1 | – | 4400 nM | – | – | > 100000 nM | > 100000 nM | –
O=C(Nc1ccn(-c2cncc(F)c2)n1)C1(c2ccccc2F)CC1 | 18 nM | 1200 nM | 68 µL/min/1e6 cells | 10 µL/min/1e6 cells | – | – | –
O=C(Cc1ccccc1F)Nc1nccc(-c2ccccc2)n1 | > 5000 nM | > 50000 nM | – | – | – | – | –
O=C(Nc1ccn(-c2ncns2)n1)C1(c2ccccc2F)CC1 | 18 nM | 400 nM | 25 µL/min/1e6 cells | 14 µL/min/1e6 cells | – | – | –

Further lines, with some results ahead:

IC50 [1] | IC50 [2] | hepatocyte CLint [3] | hepatocyte CLint [4] | IC50 [5] | IC50 [6] | SMILES | Activity [7]
> 5000 nM | > 50000 nM | – | – | – | – | O=C(Cc1ccccc1F)Nc1cnn(-c2ccccc2)c1 | –
22 nM | 560 nM | 50 µL/min/1e6 cells | 7 µL/min/1e6 cells | – | – | O=C(Nc1ccn(-c2cncc(F)c2)n1)C1(c2ccccc2)CC1 | –
340 nM | 2400 nM | 133 µL/min/1e6 cells | 5 µL/min/1e6 cells | – | – | O=C(Nc1ccn(-c2cncc(F)c2)n1)C1(c2ccc(Cl)cc2)CC1 | –
60 nM | 1600 nM | 182 µL/min/1e6 cells | 55 µL/min/1e6 cells | – | – | O=C(Cc1ccccc1F)Nc1ccn(-c2ccccc2)n1 | –
20 nM | 500 nM | 111 µL/min/1e6 cells | 38 µL/min/1e6 cells | – | – | O=C(Nc1ccn(-c2ccccc2)n1)C1(c2ccccc2)CC1 | –
> 5000 nM | > 50000 nM | – | – | – | – | CCOC(C(=O)Nc1ccn(-c2ccccc2)n1)c1ccccc1 (stereo not drawn) | –
100 nM | 830 nM | 88 µL/min/1e6 cells | 4 µL/min/1e6 cells | – | – | O=C(Nc1ccn(-c2cncc(F)c2)n1)C1(c2ccc(F)cc2)CC1 | –
80 nM | 1500 nM | 80 µL/min/1e6 cells | – | – | – | O=C(Nc1ccn(-c2ccncc2)n1)C1(c2ccccc2F)CC1 | –
260 nM | 8200 nM | 32 µL/min/1e6 cells | 31 µL/min/1e6 cells | – | – | O=C(Nc1ccn(-c2ccccc2)n1)C1(c2ccccc2)COC1 | –
1700 nM | > 50000 nM | – | – | – | – | CN(C)C(C(=O)Nc1ccn(-c2ccccc2)n1)c1ccccc1 (stereo not drawn) | –
12 nM | 500 nM | 237 µL/min/1e6 cells | 30 µL/min/1e6 cells | – | – | O=C(Nc1ccn(-c2ccccc2)n1)C1(c2ccccc2F)CC1 | –
1600 nM | 21000 nM | 78 µL/min/1e6 cells | 7 µL/min/1e6 cells | – | – | Cc1cc(-n2ccc(NC(=O)C3(c4ccccc4F)CC3)n2)ccn1 | –
38 nM | 2000 nM | 308 µL/min/1e6 cells | 37 µL/min/1e6 cells | – | – | C[C@H](C(=O)Nc1ccn(-c2ccccc2)n1)c1ccccc1 | –
140 nM | 980 nM | 278 µL/min/1e6 cells | 194 µL/min/1e6 cells | – | – | O=C(Nc1ccn(-c2ccccc2)n1)C1(c2ccccc2)CC1(F)F (stereo not drawn) | –
70 nM | 2700 nM | 519 µL/min/1e6 cells | 90 µL/min/1e6 cells | – | – | O=C(Cc1ccccc1)Nc1ccn(-c2ccccc2)n1 | –
900 nM | 4400 nM | 239 µL/min/1e6 cells | 50 µL/min/1e6 cells | – | – | CC1(C)CC1(C(=O)Nc1ccn(-c2ccccc2)n1)c1ccccc1 (stereo not drawn) | –
1900 nM | > 20000 nM | 54 µL/min/1e6 cells | 9 µL/min/1e6 cells | – | – | Nc1cc(-n2ccc(NC(=O)C3(c4ccccc4F)CC3)n2)ccn1 | –
650 nM | 9500 nM | 123 µL/min/1e6 cells | 88 µL/min/1e6 cells | – | – | CC[C@@H](C(=O)Nc1ccn(-c2ccccc2)n1)c1ccccc1 | –
210 nM | 1600 nM | 313 µL/min/1e6 cells | 56 µL/min/1e6 cells | – | – | C[C@@H](C(=O)Nc1ccn(-c2ccccc2)n1)c1ccccc1 | –
23 nM | 800 nM | 23 µL/min/1e6 cells | 6 µL/min/1e6 cells | – | – | O=C(Nc1ccn(-c2ccc(F)nc2)n1)C1(c2ccccc2F)CC1 | –
300 nM | 2700 nM | 262 µL/min/1e6 cells | 18 µL/min/1e6 cells | – | – | CC(C)(C(=O)Nc1ccn(-c2ccccc2)n1)c1ccccc1 | –
